This note sets out measurements from patent US20260224716A1, “PTH ANALOGS FOR THE TREATMENT OF HYPOPARATHYROIDISM” (priority 2020, published 2026).

The assay concerns the target T1, PTHR1 (Homo sapiens, UniProt Q03431).
T1 construct: host or cells: CHO-K1
T1 sequence (Q03431 27-593): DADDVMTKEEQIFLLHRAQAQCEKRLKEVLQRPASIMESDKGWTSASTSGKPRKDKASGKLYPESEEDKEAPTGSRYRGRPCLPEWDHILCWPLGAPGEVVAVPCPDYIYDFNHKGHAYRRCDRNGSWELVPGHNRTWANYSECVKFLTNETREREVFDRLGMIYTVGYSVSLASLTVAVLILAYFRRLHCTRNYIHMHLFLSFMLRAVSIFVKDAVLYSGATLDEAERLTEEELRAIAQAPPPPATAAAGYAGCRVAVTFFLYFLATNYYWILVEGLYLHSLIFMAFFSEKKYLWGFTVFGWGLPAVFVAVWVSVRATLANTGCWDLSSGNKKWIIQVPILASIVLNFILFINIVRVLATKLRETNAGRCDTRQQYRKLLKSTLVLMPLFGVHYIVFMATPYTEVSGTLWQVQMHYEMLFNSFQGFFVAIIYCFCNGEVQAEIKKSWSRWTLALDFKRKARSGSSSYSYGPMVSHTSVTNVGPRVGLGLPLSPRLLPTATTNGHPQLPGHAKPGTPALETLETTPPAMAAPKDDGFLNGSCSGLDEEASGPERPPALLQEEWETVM
The experiment in a line: cAMP Hunter Teriparatide Bioassay (CHO-K1 PTHR1 cells). Format: cell-based.

*1 amine or outer side, *2 acyl side, *3 side chain or, on linkers, in order; H or OH if unused. Where a SMILES comes first, the peptide text is derived from it. Side-chain parts run from the residue outwards. The star is where a group is joined. C18 diacid = O=C(O)CCCCCCCCCCCCCCCCC(=O)*; γGlu = O=C(O)[C@H](CCC(=O)[*:2])N[*:1]; AEEA = NCCOCCOCC(=O)O

Protocol: The assessment of the bioactivity of a prodrug relative to its drug form was conducted in a proprietary commercial assay as contracted with Eurofins-Discover Rx Corporation win a cAMP Hunter® Teriparatide Bioassay (95-0118Y2). An 11-point dose curve in agonist mode was conducted for each individual peptide or incubation condition. Every sample was run at each dose in triplicate.
An 11-point dose curve in agonist mode was conducted for each individual peptide or incubation condition. Every sample was run at each dose in triplicate.
An 11-point dose curve in agonist mode was conducted for each individual peptide at each concentration. Every sample was run at each dose in triplicate.

For “SEQ ID NO: 109: PTH analog site-specifically modified by oxidation to methionine sulfoxide (SVSEIQLXHNLGKHLNSMERVEWLRKKLQDVHX; SITE 8 MISC_FEATURE - Xaa at position 8 is Met wherein the side chain is oxidized to form a sulfoxide; SITE 33 MISC_FEATURE - Xaa at position 33 is Lys wherein the side chain is acylated with COC16H32CO2H via a gamma Glu-(MINIPEG)2-gamma Glu spacer; listed as Homo sapiens)”, the S/B (FIG. 12) is 1.7.

On to `CC[C@H](C)[C@H](NC(=O)[C@H](CCC(=O)O)NC(=O)[C@H](CO)NC(=O)[C@@H](NC(=O)[C@@H](N)CO)C(C)C)C(=O)N[C@@H](CCC(N)=O)C(=O)N[C@@H](CC(C)C)C(=O)N[C@@H](CCSC)C(=O)N[C@@H](Cc1c[nH]cn1)C(=O)N[C@@H](CC(N)=O)C(=O)N[C@@H](CC(C)C)C(=O)NCC(=O)N[C@@H](CCCCN)C(=O)N[C@@H](Cc1c[nH]cn1)C(=O)N[C@@H](CC(C)C)C(=O)N[C@@H](CC(N)=O)C(=O)N[C@@H](CO)C(=O)N[C@@H](CC[S+](C)[O-])C(=O)N[C@@H](CCC(=O)O)C(=O)N[C@@H](CCCNC(=N)N)C(=O)N[C@H](C(=O)N[C@@H](CCC(=O)O)C(=O)N[C@@H](Cc1c[nH]c2ccccc12)C(=O)N[C@@H](CC(C)C)C(=O)N[C@@H](CCCNC(=N)N)C(=O)N[C@@H](CCCCN)C(=O)N[C@@H](CCCCN)C(=O)N[C@@H](CC(C)C)C(=O)N[C@@H](CCC(N)=O)C(=O)N[C@@H](CC(=O)O)C(=O)N[C@H](C(=O)N[C@@H](Cc1c[nH]cn1)C(=O)N[C@@H](CCCCNC(=O)CC[C@H](NC(=O)COCCOCCNC(=O)COCCOCCNC(=O)CC[C@H](NC(=O)CCCCCCCCCCCCCCCCC(=O)O)C(=O)O)C(=O)O)C(=O)O)C(C)C)C(C)C` (some centres unmarked) [SEQ ID NO: 110], for which, under “FIG. 12”, the Hillslope turned out to be 3.034 and the S/B was found to be 14.2.

Regarding `CC[C@H](C)[C@H](NC(=O)[C@H](CCC(=O)O)NC(=O)[C@H](CO)NC(=O)[C@@H](NC(=O)[C@@H](N)CO)C(C)C)C(=O)N[C@@H](CCC(N)=O)C(=O)N[C@@H](CC(C)C)C(=O)N[C@@H](CCSC)C(=O)N[C@@H](Cc1c[nH]cn1)C(=O)N[C@@H](CC(N)=O)C(=O)N[C@@H](CC(C)C)C(=O)NCC(=O)N[C@@H](CCCCN)C(=O)N[C@@H](Cc1c[nH]cn1)C(=O)N[C@@H](CC(C)C)C(=O)N[C@@H](CC(N)=O)C(=O)N[C@@H](CO)C(=O)N[C@@H](CCSC)C(=O)N[C@@H](CCC(=O)O)C(=O)N[C@@H](CCCNC(=N)N)C(=O)N[C@H](C(=O)N[C@@H](CCC(=O)O)C(=O)N[C@@H](Cc1c[nH]c2ccccc12)C(=O)N[C@@H](CC(C)C)C(=O)N[C@@H](CCCNC(=N)N)C(=O)N[C@@H](CCCCN)C(=O)N[C@@H](CCCCN)C(=O)N[C@@H](CC(C)C)C(=O)N[C@@H](CCC(=O)O)C(=O)N[C@@H](CC(=O)O)C(=O)N[C@H](C(=O)N[C@@H](Cc1c[nH]cn1)C(=O)N[C@@H](CCCCNC(=O)CC[C@H](NC(=O)COCCOCCNC(=O)COCCOCCNC(=O)CC[C@H](NC(=O)CCCCCCCCCCCCCCCCC(=O)O)C(=O)O)C(=O)O)C(=O)O)C(C)C)C(C)C` [SEQ ID NO: 124] (H-SVSEIQLMHNLGKHLNSMERVEWLRKKLEDVHK([γGlu-AEEA-AEEA-γGlu-C18 diacid])-OH; N-terminus and C-terminus assumed), for the setting “FIG. 13B”, the Hillslope is on record as 1.797 and the S/B is 8.9.
